Each structure is given as a SMILES string.

Holding throughout (type): cell-based
Series [1] relates to Salmonella typhimurium strains TA98 and TA mixed. Briefly: AMES II assay. The conditions noted are these: absence and presence of S9. The method, then: Biological Example 7: AMES II Assay
The aim of this study was to evaluate compound(s) and/or their metabolite(s) for their ability to induce reverse mutations in a gene of histidine-requiring Salmonella typhimurium strains to produce histidine-independent strains of these bacteria, in the absence and in the presence of a mammalian metabolic activation system.
Mutagenic potential was assessed by using an in-house adaptation of the Ames II Mutagenicity Assay kit from Xenometrics (Boulder, CA, USA). The strains TA98 and TA mixed (a combination of 6 strains) used in this study were able to detect frame-shift mutations and base pair substitutions respectively. […]
In the in vitro gene reverse mutation test, effects were determined by exposing a mutant strain of Salmonella typhimurium to various concentrations of the test compound. […] These colonies (revertants) are readily detectable due to their ability to grow on a histidine deficient medium. […] The revertant bacteria are detected by their ability to grow in the absence of the amino acid required by the parent test strain. […] The strains containing the plasmid, pKM101, are reverted by a number of mutagens that are detected weakly or not at all with the non plasmid bearing parent strains. […]

Series [2] relates to mitochondrial respiration in HepG2 cells. Briefly: Seahorse assay, mitochondrial respiration. The conditions noted are these: Homo sapiens, 0.3-100 μM, read-out: IC50, mitochondrial respiration as measured by spare respiratory capacity. How it is done:
Biological Example 11: Seahorse Assay
(§1) The purpose of this assay was to investigate the effect of the compound of formula (I-A) on mitochondrial respiration in HepG2 cells using the Agilent Seahorse XFe96 analyzer. Cell viability was also determined in HepG2 cells in parallel to the Seahorse assay.
Measurement of mitochondrial respiration in HepG2 Cells: Compound doses were prepared in 100% DMSO and subsequently diluted in assay medium to achieve final solvent concentration of 0.10%. HepG2 cells were plated overnight in a Seahorse plate (Agilent Technologies, Santa Clara, California) at a density of 40,000 cells/well in EMEM containing 10% HI FBS and 1× Pen/Strep cell culture. […] Mitochondrial respiration, quantitated as oxygen consumption rate (OCR), was measured on an Agilent Seahorse XFe96 analyzer using the Seahorse Mito Stress test assay as per the manufacturer's protocol. […]
Data Analyses: Mitochondrial SRC (spare respiratory capacity) was calculated by subtracting the rate of the basal respiration from the rate of the maximal respiration. […] All experiments were run in triplicate and the mean and standard deviations were calculated for each test concentration. […]
(§2) IC50 values were determined by nonlinear regression and fitting of the dose response curves to a […] equation with variable slope (Hill coefficient): […]

The subject of a further series is HepG2 cells. Put plainly: Cell viability, Cell Titer Fluor Assay, parallel to Seahorse assay. The conditions noted are these: Homo sapiens, 1 h, one-hour incubation, read-out: IC50, cellular viability. How it is done:
as §1
Cell viability measurements: HepG2 cells were seeded onto black-walled 96 well plates at a density of 40,000 cells/well in EMEM containing 10% HI FBS and 1× Pen/Strep and allowed to attach overnight. The next day, test compounds were prepared and diluted in EMEM. Following a one-hour incubation with the test article(s), cell viability was assessed using the Cell Titer Fluor Assay (Promega, Cat no. G6081) according to the manufacturer's protocol. The viability assay monitors activity of […], a ubiquitous protease found in live cells.
Data Analyses: Mitochondrial SRC (spare respiratory capacity) was calculated by subtracting the rate of the basal respiration from the rate of the maximal respiration. SRC values were automatically generated by the Report Generator (Agilent Technologies-version 4.0). All experiments were run in triplicate and the mean and standard deviations were calculated for each test concentration. All data were normalized to vehicle controls.
as §2

Consider `O=C1C=C(c2c(-n3cnnn3)ccc(Cl)c2F)C[C@H]2CC[C@@H](c3ncc(-c4ccnc(CO)c4F)[nH]3)N12` [Compound of formula (I-A), (3S,8aR)-7-(3-Chloro-2-fluoro-6-(1H-tetrazol-1-yl)phenyl)-3-(5-(3-fluoro-2-(hydroxymethyl)pyridin-4-yl)-1H-imidazol-2-yl)-2,3,8,8a-tetrahydroindolizin-5(1H)-one], for which the “AMES II assay result” value in series [1] is “negative”. The IC50 (in series [2]; with HepG2 cells) was above 100 µM in each case.

The values above are taken from US12545677B2, “Compounds useful as factor XIa inhibitors” (JANSSEN PHARMACEUTICA NV, priority 2020, dated 2026).
